Assay results reported in PMC6100724, “Proteome‐wide analysis of phospho‐regulated PDZ domain interactions” (Molecular Systems Biology, 2018).
Values belong to the sequence of their own block, whether it stands above or below them.

Assays:
Experiment in all cases: Phosphomimetic ProP-PD selection with NGS
DLG1 PDZ2 = biological target: T1, DLG1 PDZ2 (Homo sapiens, UniProt Q12959); format: binding; conditions: mean of selections 1-3, bait DLG1 PDZ2
T1 construct: human DLG1 PDZ2 aa 311–407 in a modified pRSET vector 40; made in house; host or cells: E. coli BL21 Gold (DE3)
Method: (§1) Phage selections were carried out for four rounds following a protocol by Huang and Sidhu (Huang & Sidhu, 2011) with minor modifications. Non‐specific binding phage was removed by pre‐selections against immobilized GST throughout the selection. The selections against the (pre‐)phosphorylated wild‐type library were performed in 50 mM HEPES (pH 7.4) and 150 mM NaCl (HBS) following the same procedure after pre‐phosphorylation of the library.
(§2) • Immobilize proteins (15 μg in 100 μl PBS) in a 96‐well MaxiSorp microtiter plate (NUNC) overnight at 4°C. • Start a 2YT culture of E. coli Omnimax supplemented with 100 μg/ml tetracycline to retain the F pilus epitope. • Block the wells with 200 μl 0.5% BSA in PBS for 2 h at 4°C. • Precipitate naïve phage library (10^11 cfu per selection) or amplified phage pool from the previous round of selection by adding one‐fifth the volume of PEG/NaCl. • Incubate on ice for 10 min, and pellet precipitated phage by centrifugation at 5,300 g for 15 min. Resuspend the phage pellet in 100 μl PBS per selection. • Add 100 μl of phage solution to the GST‐coated pre‐selection wells and incubate for 1 h. • Transfer the phage solution to the immobilized target proteins and allow it to bind for 2 h at 8°C. • Wash the plate four times with 200 μl cold wash buffer (PBS, 0.05% Tween‐20). • Elute bound phage by incubation with 100 μl log phase (0.6–0.8 OD600) E. coli Omnimax for 30 min at 37°C with shaking (200 RPM). • Add 10^12 cfu/ml M13K07 helper phage for hyperinfection of the bacteria and incubate as above for 45 min. • Transfer the bacterial culture to 10 ml 2YT supplemented with 50 μg/ml carbenicillin, 25 μg/ml kanamycin, and 300 μM IPTG and incubate overnight at 37°C while shaking. • Perform phage pool ELISA to monitor the progress of the selection as described previously (Huang & Sidhu, 2011).
(§3) The naïve library and the enriched phage pools of the third day of selection were amplified and barcoded by PCR and analyzed by NGS as described elsewhere (McLaughlin & Sidhu, 2013; Ivarsson et al, 2014). The reads were demultiplexed using the barcode sequences and filtered by discarding sequences with a Phred quality score under 30. Sequences were mapped to the original library using Bowtie (Langmead et al, 2009) with two mismatches between reads and library sequence. Nucleotide mutations leading to amino acid substitutions were subsequently removed. Cutoff values of NGS counts were assigned for each pool. PWMs were generated based on the remaining peptides (aligned on the C‐termini) using WebLogo (Crooks et al, 2004).
(§4) However, there was no significant correlation of the actual read counts (selection “strength”) and the initial representation in the library, reflecting the strong selection during phage display (wt+mimetic: P‐value: 0.49, ρ = −0.08, mimetic only: P‐value: 0.069, ρ = −0.2, wt only: P‐value: 0.12, ρ = 0.17). Consequently, the amount of reads for each binder after phage display is not a function of the amount of input reads in the naïve library and no modeling based on the input library frequencies to score the interactions is necessary. To allow for comparison between replicate selections, we used the fraction of NGS reads within a certain set, instead of the absolute number of NGS reads, as the absolute numbers differ between different NGS batches.

Scribble PDZ1 = biological target: T2, Scribble PDZ1 (Homo sapiens, UniProt Q14160); format: binding; conditions: bait Scribble PDZ1; mean of selections 1-3
T2 construct: human Scribble PDZ1 aa 719–829 in; made in house; host or cells: E. coli BL21 Gold (DE3)
Method: as §1, §2, §3, §4

DLG1 PDZ1 = format: binding, human; conditions: mean of selections 1-3, bait DLG1 PDZ1; for Mean fraction #NGS counts mimetic peptide / total count selection: phosphomimetic peptide; for Mean fraction #NGS counts wt peptide / total counts selection: wild type peptide
Method: as §1, §2, §3, §4

Scribble PDZ3 = format: binding, human; conditions: bait Scribble PDZ3
Method: as §1, §2, §3, §4

Scribble PDZ2 = format: binding, human; conditions: bait Scribble PDZ2
Method: as §1, §2, §3, §4

[1] = mean of selections 1 and 2 (selection 3 empty)
[2] = mean of selections 1-3, wild type peptide

T2 sequence (Q14160 719-829): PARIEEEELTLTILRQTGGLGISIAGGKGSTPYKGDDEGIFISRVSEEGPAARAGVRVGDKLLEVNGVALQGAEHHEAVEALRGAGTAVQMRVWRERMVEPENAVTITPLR
T1 sequence (Q12959 311-407): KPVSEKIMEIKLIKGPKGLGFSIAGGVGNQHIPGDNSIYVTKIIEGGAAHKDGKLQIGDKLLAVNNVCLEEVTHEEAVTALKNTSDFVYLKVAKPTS

Sequence: SEGHTSTTL
- Mean fraction #NGS counts mimetic peptide / total count selection (DLG1 PDZ1): 5.924e-6

Sequence: SGEYLVTEV
- Mean fraction #NGS counts mimetic peptide / total count selection (Scribble PDZ2; mean over selections): 0.001329

Sequence: SQERMETNM
- Mean fraction #NGS counts mimetic peptide / total count selection (Scribble PDZ2; [1]): 0.007678
- Mean fraction #NGS counts mimetic peptide / total count selection (Scribble PDZ3; mean over selections 1-3): 0.0002907

Sequence: SQSRMSTNM
- Mean fraction #NGS counts wt peptide / total counts selection (Scribble PDZ2; [1]): 0
- Mean fraction #NGS counts wt peptide / total counts selection (Scribble PDZ3; mean over selections 1-3): 0

Sequence: SSGEQHTNV
- Mean fraction #NGS counts mimetic peptide / total count selection (DLG1 PDZ2): 5.744e-6
- Mean fraction #NGS counts mimetic peptide / total count selection (DLG1 PDZ1): 0

Sequence: SSGHTSTTL
- Mean fraction #NGS counts wt peptide / total counts selection (DLG1 PDZ1): 0

Sequence: TELTWISTL
- Mean fraction #NGS counts mimetic peptide / total count selection (Scribble PDZ2; [1]): 0.002089

Sequence: TRLEQHTDV
- Mean fraction #NGS counts mimetic peptide / total count selection (DLG1 PDZ2): 6.6203e-5
- Mean fraction #NGS counts mimetic peptide / total count selection (DLG1 PDZ1): 8.513e-6

Sequence: TRLSQHTDV
- Mean fraction #NGS counts wt peptide / total counts selection (DLG1 PDZ2): 0.0007437
- Mean fraction #NGS counts wt peptide / total counts selection (DLG1 PDZ1): 0.0004744

Sequence: TSLTWISTL
- Mean fraction #NGS counts wt peptide / total counts selection (Scribble PDZ2; [1]): 0

Sequence: VVHEPETEV
- Mean fraction #NGS counts mimetic peptide / total count selection (Scribble PDZ1): 4.939e-5
- Mean fraction #NGS counts mimetic peptide / total count selection (DLG1 PDZ1): 1.207e-5

Sequence: VVHTPETSV
- Mean fraction #NGS counts wt peptide / total counts selection (DLG1 PDZ2): 3.877e-6
- Mean fraction #NGS counts wt peptide / total counts selection (Scribble PDZ1): 7.859e-5
- Mean fraction #NGS counts wt peptide / total counts selection (Scribble PDZ2; mean over selections): 0
- Mean fraction #NGS counts wt peptide / total counts selection (Scribble PDZ3; [2]): 6.402e-5

Sequence: VVSERIESV
- Mean fraction #NGS counts mimetic peptide / total count selection (Scribble PDZ2; [1]): 0.0001899

Sequence: WVDSYYTEL
- Mean fraction #NGS counts mimetic peptide / total count selection (Scribble PDZ2; mean over selections): 0.002879
- Mean fraction #NGS counts mimetic peptide / total count selection (Scribble PDZ3; mean of selections 1-3, phosphomimetic peptide): 0.002589

Sequence: WVDSYYTSL
- Mean fraction #NGS counts wt peptide / total counts selection (Scribble PDZ2; mean over selections): 0
- Mean fraction #NGS counts wt peptide / total counts selection (Scribble PDZ3; [2]): 0.0003456

Sequence: YPAEPDSWV
- Mean fraction #NGS counts mimetic peptide / total count selection (DLG1 PDZ2): 0
- Mean fraction #NGS counts mimetic peptide / total count selection (Scribble PDZ2; [1]): 0

Sequence: YPASPDSWV
- Mean fraction #NGS counts wt peptide / total counts selection (DLG1 PDZ2): 0.0001112
- Mean fraction #NGS counts wt peptide / total counts selection (Scribble PDZ2; [1]): 0.02304

Sequence: YPGEPDSWV
- Mean fraction #NGS counts mimetic peptide / total count selection (Scribble PDZ2; [1]): 0

Sequence: YPGSPDEWV
- Mean fraction #NGS counts mimetic peptide / total count selection (Scribble PDZ2; [1]): 0

Further lines, with some results ahead:

- Mean fraction #NGS counts mimetic peptide / total count selection (DLG1 PDZ2): 3.877e-6
- Mean fraction #NGS counts mimetic peptide / total count selection (Scribble PDZ1): 0
Sequence: RSRSISEDV
- Mean fraction #NGS counts mimetic peptide / total count selection (DLG1 PDZ1): 0
- Mean fraction #NGS counts mimetic peptide / total count selection (Scribble PDZ3; mean over selections 1-3): 0

- Mean fraction #NGS counts wt peptide / total counts selection (DLG1 PDZ2): 0.02018
- Mean fraction #NGS counts wt peptide / total counts selection (Scribble PDZ1): 0.0001844
Sequence: RSRSISTDV
- Mean fraction #NGS counts wt peptide / total counts selection (Scribble PDZ2; [1]): 0.001899
- Mean fraction #NGS counts wt peptide / total counts selection (Scribble PDZ3; mean over selections 1-3): 0.0004544

- Mean fraction #NGS counts wt peptide / total counts selection (Scribble PDZ1): 0.005032
Sequence: SARLWETSI
- Mean fraction #NGS counts wt peptide / total counts selection (DLG1 PDZ1): 5.924e-6
- Mean fraction #NGS counts wt peptide / total counts selection (Scribble PDZ3; mean over selections 1-3): 0.08665

- Mean fraction #NGS counts mimetic peptide / total count selection (DLG1 PDZ2): 0
Sequence: SGEYLVTSV
- Mean fraction #NGS counts mimetic peptide / total count selection (Scribble PDZ2; [1]): 0.001139

- Mean fraction #NGS counts wt peptide / total counts selection (DLG1 PDZ2): 0.0001258
- Mean fraction #NGS counts wt peptide / total counts selection (DLG1 PDZ2; wild type peptide): 0.0001258
- Mean fraction #NGS counts wt peptide / total counts selection (Scribble PDZ1): 4.38e-5
Sequence: SGSYLVTSV
- Mean fraction #NGS counts wt peptide / total counts selection (Scribble PDZ2; [1]): 0.0003798
- Mean fraction #NGS counts wt peptide / total counts selection (Scribble PDZ2; mean over selections): 0.0003798

- Mean fraction #NGS counts wt peptide / total counts selection (DLG1 PDZ2): 0.001066
Sequence: SSGSQHTNV
- Mean fraction #NGS counts wt peptide / total counts selection (DLG1 PDZ1): 5.9593e-5

- Mean fraction #NGS counts wt peptide / total counts selection (Scribble PDZ1): 6.957e-5
Sequence: VRKLPSTTL
- Mean fraction #NGS counts wt peptide / total counts selection (Scribble PDZ3; [2]): 8.076e-6
- Mean fraction #NGS counts wt peptide / total counts selection (Scribble PDZ3; mean over selections 1-3): 8.076e-6

- Mean fraction #NGS counts mimetic peptide / total count selection (DLG1 PDZ2): 0.0004709
Sequence: VVSERISEV
- Mean fraction #NGS counts mimetic peptide / total count selection (Scribble PDZ2; mean over selections): 0.0003798

- Mean fraction #NGS counts wt peptide / total counts selection (DLG1 PDZ2): 0.0005322
Sequence: VVSERISSV
- Mean fraction #NGS counts wt peptide / total counts selection (Scribble PDZ2; [1]): 0.003259
- Mean fraction #NGS counts wt peptide / total counts selection (Scribble PDZ2; mean over selections): 0.003259

- Mean fraction #NGS counts mimetic peptide / total count selection (DLG1 PDZ2): 0
Sequence: YPGEPDEWV
- Mean fraction #NGS counts mimetic peptide / total count selection (DLG1 PDZ1): 0.01439
